Active and inactive are the calls of the source. No rule for the calls is given here.

In the series the test system is CCRIS mutagenicity, Ames/micronucleus/aberration tests. The series is described as follows: CCRIS mutagenicity studies.
Where [1] appears, read: Test System: AMES SALMONELLA TYPHIMURIUM, Strain/Indicator: TA98, Metabolic Activation: NONE, Method: PREINCUBATION
The mark [2] stands for this setting: Test System: AMES SALMONELLA TYPHIMURIUM, Strain/Indicator: TA100, Metabolic Activation: NONE, Method: PREINCUBATION
Setting [3] is: Test System: AMES SALMONELLA TYPHIMURIUM, Strain/Indicator: TA1535, Metabolic Activation: NONE, Method: PREINCUBATION
[4] abbreviates: Test System: AMES SALMONELLA TYPHIMURIUM, Strain/Indicator: TA1537, Metabolic Activation: NONE, Method: PREINCUBATION

For `C[C@H](CCC(=O)O)[C@H]1CC[C@H]2[C@@H]3[C@@H](O)C[C@@H]4C[C@H](O)CC[C@]4(C)[C@H]3CC[C@]12C`, the mutagenic call (Test System: AMES SALMONELLA TYPHIMURIUM, Strain/Indicator: TA98, Metabolic Activation: NONE, Method: FLUCTUATION TEST) is “active; positive”; the mutagenic call (Test System: AMES SALMONELLA TYPHIMURIUM, Strain/Indicator: TA100, Metabolic Activation: NONE, Method: FLUCTUATION TEST) was “inactive; negative”; the mutagenic call (Test System: AMES SALMONELLA TYPHIMURIUM, Strain/Indicator: TA100, Metabolic Activation: NONE, Method: STANDARD PLATE) is “inactive; negative”; the mutagenic call (Test System: AMES SALMONELLA TYPHIMURIUM, Strain/Indicator: TA100, Metabolic Activation: RAT, LIVER, S-9, AROCLOR 1254, Method: STANDARD PLATE) was “inactive; negative”.
Regarding `Nc1cccc2cnsc12`, the mutagenic call (Test System: AMES SALMONELLA TYPHIMURIUM, Strain/Indicator: TA98, Metabolic Activation: NONE, Method: STANDARD PLATE) was “active; positive”.
Turning to `Nc1c(Cl)cc(-c2cc(Cl)c(N)c(Cl)c2)cc1Cl`, under “Test System: UDS HUMAN CELLS, Strain/Indicator: THY INCORP (NON-S-PHASE), Metabolic Activation: RAT, LIVER, S-9, PHENOBARBITAL, Method: LIQUID SCINTILLATION COUNTING”, the mutagenic call was “active; positive”.
`Nc1c[n+](N2CCOCC2)no1`: the mutagenic call (Test System: E. COLI, Strain/Indicator: WP2 UVRA (PKM101), Metabolic Activation: NONE, Method: STANDARD PLATE) is “inactive; negative” and the mutagenic call (Test System: E. COLI, Strain/Indicator: WP2 UVRA/OXYR (PKM101), Metabolic Activation: NONE, Method: STANDARD PLATE) was “active; positive”.
For the compound `CCOC(=O)CN=[N+]=[N-]`, the mutagenic call (Test System: AMES SALMONELLA TYPHIMURIUM, Strain/Indicator: TA1530, Metabolic Activation: NONE, Method: STANDARD PLATE) was “active; positive”.
`CCCCCCCCCCCCOCCO`: the mutagenic call was “inactive; negative” (End Point: IN VITRO CHROMOSOMAL ABERRATIONS, Test System: CHO-LB CELLS, Metabolic Activation: NONE); “inactive; negative” (End Point: IN VITRO CHROMOSOMAL ABERRATIONS, Test System: CHO-LB CELLS, Metabolic Activation: RAT, LIVER, S-9, AROCLOR 1254); “inactive; negative” (Test System: AMES SALMONELLA TYPHIMURIUM, Strain/Indicator: TA98, Metabolic Activation: HAMSTER, LIVER, S-9, AROCLOR 1254 (10%), Method: PREINCUBATION); “inactive; negative” under setting [1]; “inactive; negative” (Test System: AMES SALMONELLA TYPHIMURIUM, Strain/Indicator: TA98, Metabolic Activation: RAT, LIVER, S-9, AROCLOR 1254 (10%), Method: PREINCUBATION); “inactive; negative” (Test System: AMES SALMONELLA TYPHIMURIUM, Strain/Indicator: TA100, Metabolic Activation: HAMSTER, LIVER, S-9, AROCLOR 1254 (10%), Method: PREINCUBATION). In addition, the mutagenic call runs as follows: under setting [2], “inactive; negative”; (Test System: AMES SALMONELLA TYPHIMURIUM, Strain/Indicator: TA100, Metabolic Activation: RAT, LIVER, S-9, AROCLOR 1254 (10%), Method: PREINCUBATION) “inactive; negative”; (Test System: AMES SALMONELLA TYPHIMURIUM, Strain/Indicator: TA1535, Metabolic Activation: HAMSTER, LIVER, S-9, AROCLOR 1254 (10%), Method: PREINCUBATION) “inactive; negative”; under setting [3], “inactive; negative”; (Test System: AMES SALMONELLA TYPHIMURIUM, Strain/Indicator: TA1535, Metabolic Activation: RAT, LIVER, S-9, AROCLOR 1254 (10%), Method: PREINCUBATION) “inactive; negative”; (Test System: AMES SALMONELLA TYPHIMURIUM, Strain/Indicator: TA1537, Metabolic Activation: HAMSTER, LIVER, S-9, AROCLOR 1254 (10%), Method: PREINCUBATION) “inactive; negative”. For the same compound, the mutagenic call is, setting by setting: under setting [4], “inactive; negative”; (Test System: AMES SALMONELLA TYPHIMURIUM, Strain/Indicator: TA1537, Metabolic Activation: RAT, LIVER, S-9, AROCLOR 1254 (10%), Method: PREINCUBATION) “inactive; negative”; (Test System: E. COLI, Strain/Indicator: WP2 UVRA, Metabolic Activation: NONE, Method: STANDARD PLATE) “inactive; negative”; (Test System: E. COLI, Strain/Indicator: WP2 UVRA, Metabolic Activation: S-9, Method: STANDARD PLATE) “inactive; negative”.
In the case of `CCCCCCCCCCCCc1ccccc1`, the mutagenic call runs as follows: under setting [1], “inactive; negative”; (Test System: AMES SALMONELLA TYPHIMURIUM, Strain/Indicator: TA98, Metabolic Activation: RAT, LIVER, S-9, KC 500, Method: PREINCUBATION) “inactive; negative”; under setting [2], “inactive; negative”; (Test System: AMES SALMONELLA TYPHIMURIUM, Strain/Indicator: TA100, Metabolic Activation: RAT, LIVER, S-9, KC 500, Method: PREINCUBATION) “inactive; negative”; under setting [3], “inactive; negative”; (Test System: AMES SALMONELLA TYPHIMURIUM, Strain/Indicator: TA1535, Metabolic Activation: RAT, LIVER, S-9, KC 500, Method: PREINCUBATION) “inactive; negative”. The mutagenic call was “inactive; negative” under setting [4]; “inactive; negative” (Test System: AMES SALMONELLA TYPHIMURIUM, Strain/Indicator: TA1537, Metabolic Activation: RAT, LIVER, S-9, KC 500, Method: PREINCUBATION); “inactive; negative” (Test System: AMES SALMONELLA TYPHIMURIUM, Strain/Indicator: TA1538, Metabolic Activation: NONE, Method: PREINCUBATION); “inactive; negative” (Test System: AMES SALMONELLA TYPHIMURIUM, Strain/Indicator: TA1538, Metabolic Activation: RAT, LIVER, S-9, KC 500, Method: PREINCUBATION); “inactive; negative” (Test System: E. COLI, Strain/Indicator: WP2 UVRA, Metabolic Activation: NONE, Method: PREINCUBATION); “inactive; negative” (Test System: E. COLI, Strain/Indicator: WP2 UVRA, Metabolic Activation: RAT, LIVER, S-9, KC 500, Method: PREINCUBATION).
`NS(=O)(=O)c1cccc2cccnc12`: the mutagenic call (Test System: AMES SALMONELLA TYPHIMURIUM, Strain/Indicator: TA100, Metabolic Activation: S-9, Method: PREINCUBATION) was “inactive; negative”.
